The values that follow come from ChEMBL document CHEMBL1154035, “Synthesis, characterization, and anti-melanoma activity of tetra-O-substituted analogs of nordihydroguaiaretic acid” (Bioorg Med Chem Lett, 2009).

The data set has as its system Mus musculus. Put plainly: Toxicity in ip dosed mouse. The class given is organism-based. Conditions: in vivo.

Molecules are shown by their SMILES.

Compound `CC(Cc1ccc(O)c(O)c1)C(C)Cc1ccc(O)c(O)c1` (configuration not stated) [NORDIHYDROGUAIARETIC ACID] yielded a 50% lethal dose (LD50) of 75 mg/kg.

As for `COc1ccc(C[C@@H](C)[C@@H](C)Cc2ccc(OC)c(OC)c2)cc1OC` [TERAMEPROCOL], the LD50 worked out at 1000 mg/kg.
